Assays:
HRAS (SEQ ID NO: 4) = HRAS (SEQ ID NO: 4) (Homo sapiens, UniProt P01112); test: SOS-catalyzed guanine nucleotide exchange (GNE) assay, HRAS
Method: (§1) Specifically, the SOS-catalyzed nucleotide exchange assay utilizes a preformed time-resolved fluorescence resonance energy transfer (TR-FRET) complex containing a specific biotinylated RAS protein (KRAS-G12C/V/D, HRAS, NRAS; described above) with BODIPY-GDP, and Terbium-streptavidin. Test compounds are preincubated with this complex for 60 minutes.
(§2) To assemble the preformed TR-FRET complexes, each biotinylated RAS protein is diluted to 2 μM in an EDTA Buffer (20 mM HEPES, 50 mM sodium chloride, 10 mM EDTA, and 0.01% Tween) and incubated at room temperature for one hour. This mixture is then further diluted to 90 nM in an Assay Buffer (20 mM HEPES, 150 mM sodium chloride, 10 mM magnesium chloride, and 0.005% Tween) containing 15 nM of Terbium-Streptavidin (Invitrogen, catalog #PV3577) and 900 nM of BODIPY-GDP (Invitrogen, catalog #G22360) and incubated at room temperature for six hours. It should be noted that this preformed TR-FRET complex for each of the RAS proteins was made ahead of time, aliquoted and stored at −80° C. until the day of the experiment.
(§3) Once titrations are made, 10 nL of the diluted compounds is acoustically dispensed into a 384-well assay plate (Corning, catalog #3820) using an Echo 550 (Labcyte). Each well of the assay plate subsequently receives 3 μL of a specific 3× RAS preformed TR-FRET complex and 3 μL of Assay Buffer and is incubated at room temperature for 60 minutes (preincubation time). […] The final reaction in each well of 9 μL consists of 3 mM GTP, and the specific RAS and SOS proteins in the following concentrations: KRAS-G12C/SOS=3 nM/40 nM, KRAS-G12D/SOS=1 nM/40 nM, KRAS-G12V/SOS=1.25 nM/160 nM, HRAS/SOS=1.25 nM/40 nM, and NRAS/SOS=1.25 nM/40 nM.
(§4) The TR-FRET signal is measured on an Envision (PerkinElmer) plate reader: Excitation filter=340 nm; emission 1=495 nm; emission 2=520 nm; dichroic mirror=D400/D505; delay time=100 ms. The signal of each well is determined as the ratio of the emission at 520 nm to that at 495 nm. […] The apparent effect as a function of compound concentration is fit to a four-parameter logistic equation to calculate IC50 values using Spotfire software.

[1] = test system: NCI-H358 cells containing homozygous KRAS-G12C activating mutation (p-ERK); conditions: Homo sapiens, NCI-H358, 2 h, read-out: G12C H358 IC50 (nM)
Method: Procedure for Cellular Phospho-ERK Assay, G12C
NCI-H358 cells (ATCC® CRL-5807™), containing homozygous KRAS-G12C activating mutation, were cultured in T150 flask in growth medium (RPMI medium 1640-GlutaMAX™—I (ThermoFisher Scientific 61870) containing 10% fetal bovine serum (ThermoFisher Scientific 10091148)). The cells were harvested in growth medium after TrypLE (ThermoFisher scientific 12604021) digestion and were seeded in a 384-well collagen coated cell culture plate (Corning 356702) at a density of 15,000 cells/well, and incubated at 37° C., 5% CO2 overnight. […] RPMI medium 1640-GlutaMAX™—I was added to the intermediate plate and the contents of the intermediate plate were then transferred to the 384-well collagen coated cell culture plate, which was incubated at 37° C., 5% CO2 for 2 hours. After removal of medium from the collagen coated cell culture plate, cells were lysed in lysis buffer from Alpha SureFire® Ultra™ Multiplex p-ERK and total ERK assay kit (PerkinElmer MPSU-PTERK) containing Halt™ Protease and Phosphatase inhibitor cocktail (ThermoFisher Scientific 78446) at room temperature with constant shaking at 300 rpm for 30 minutes. The cell lysates were then transferred to an OptiPlate-384 plate (PerkinElmer 6005620), and the phosphorylation of ERK (p-ERK) and total ERK levels were detected by Alpha SureFire® Ultra™ Multiplex p-ERK kit and total ERK assay kit (PerkinElmer MPSU-PTERK) following the manufacturer's protocol. Assay plates were read on an EnVision Multimode Plate Reader (PerkinElmer), and the ratio of p-ERK vs. total ERK in each well was used as the final readout. Dose response curves were analyzed using a 4-parameter logistic model to calculate IC50 values using Spotfire software.
NRAS (SEQ ID NO: 5) = NRAS (SEQ ID NO: 5) (Homo sapiens, UniProt P01111); test: SOS-catalyzed guanine nucleotide exchange (GNE) assay, NRAS
Method: as §1, §2, §3, §4

[2] = target: Recombinant KRAS-G12D (SEQ ID NO: 2) (Homo sapiens, UniProt P01116, G12D); test: SOS-catalyzed guanine nucleotide exchange (GNE) assay, KRAS-G12D
Chain of Recombinant KRAS-G12D (SEQ ID NO: 2) (P01116 with tags, fused parts or gaps isoform P01116-2 G12D): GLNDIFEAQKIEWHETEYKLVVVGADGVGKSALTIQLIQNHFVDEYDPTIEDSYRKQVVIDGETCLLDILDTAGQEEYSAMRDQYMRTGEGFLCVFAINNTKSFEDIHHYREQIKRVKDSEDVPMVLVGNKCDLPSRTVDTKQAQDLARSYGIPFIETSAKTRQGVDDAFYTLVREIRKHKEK
Method: as §1, §2, §3, §4

[3] = target: Recombinant KRAS-G12V (SEQ ID NO: 3) (Homo sapiens, UniProt P01116, G12V); test: SOS-catalyzed guanine nucleotide exchange (GNE) assay, KRAS-G12V
Chain of Recombinant KRAS-G12V (SEQ ID NO: 3) (P01116 with tags, fused parts or gaps isoform P01116-2 G12V): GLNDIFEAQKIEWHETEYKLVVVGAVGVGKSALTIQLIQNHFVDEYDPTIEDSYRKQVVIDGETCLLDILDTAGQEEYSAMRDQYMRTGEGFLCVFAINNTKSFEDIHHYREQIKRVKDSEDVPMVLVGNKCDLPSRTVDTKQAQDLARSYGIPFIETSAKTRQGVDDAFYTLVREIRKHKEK
Method: as §1, §2, §3, §4

[4] = test system: AsPC-1 cells containing homozygous KRAS-G12D activating mutation (p-ERK); conditions: Homo sapiens, ASPC1, 2 h, read-out: KRAS G12D ASPC-1 IC50 (nM)
Method: Procedure for Cellular Phospho-ERK Assay, G12D
AsPC-1 cells (ATCC® CRL-1682™), containing homozygous KRAS-G12D activating mutation, were cultured in T150 flask in growth medium (RPMI medium 1640-GlutaMAX™—I (ThermoFisher Scientific 61870) containing 10% fetal bovine serum (ThermoFisher Scientific 10091148)). The cells were harvested in growth medium after TrypLE (ThermoFisher scientific 12604021) digestion and were seeded in a 384-well collagen coated cell culture plate (Corning 356702) at a density of 15,000 cells/well, and incubated at 37° C., 5% CO2 overnight. […] RPMI medium 1640-GlutaMAX™—I was added to the intermediate plate and the contents of the intermediate plate were then transferred to the 384-well collagen coated cell culture plate, which was incubated at 37° C., 5% CO2 for 2 hours. After removal of medium from the collagen coated cell culture plate, cells were lysed in lysis buffer from Alpha SureFire® Ultra™ Multiplex p-ERK and total ERK assay kit (PerkinElmer MPSU-PTERK) containing Halt™ Protease and Phosphatase inhibitor cocktail (ThermoFisher Scientific 78446) at room temperature with constant shaking at 300 rpm for 30 minutes. The cell lysates were then transferred to an OptiPlate-384 plate (PerkinElmer 6005620), and the phosphorylation of ERK (p-ERK) and total ERK levels were detected by Alpha SureFire® Ultra™ Multiplex p-ERK kit and total ERK assay kit (PerkinElmer MPSU-PTERK) following the manufacturer's protocol. Assay plates were read on a EnVision Multimode Plate Reader (PerkinElmer), and the ratio of p-ERK vs. total ERK in each well was used as the final readout. Dose response curves were analyzed using a 4-parameter logistic model to calculate IC50 values using Spotfire software.

G13D = G13D (Homo sapiens, UniProt P01116, G13D); test: Guanine nucleotide exchange (GNE) assay, G13D; type: biochemical
Chain of G13D (P01116 1-188 isoform P01116-2 G13D): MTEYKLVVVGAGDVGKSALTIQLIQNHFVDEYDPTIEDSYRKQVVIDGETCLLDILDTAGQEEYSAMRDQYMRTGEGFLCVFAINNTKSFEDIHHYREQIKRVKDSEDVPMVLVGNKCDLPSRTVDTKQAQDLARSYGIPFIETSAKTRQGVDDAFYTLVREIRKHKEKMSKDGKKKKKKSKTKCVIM
Method: as §4

Chain of HRAS (SEQ ID NO: 4) (P01112 with tags, fused parts or gaps): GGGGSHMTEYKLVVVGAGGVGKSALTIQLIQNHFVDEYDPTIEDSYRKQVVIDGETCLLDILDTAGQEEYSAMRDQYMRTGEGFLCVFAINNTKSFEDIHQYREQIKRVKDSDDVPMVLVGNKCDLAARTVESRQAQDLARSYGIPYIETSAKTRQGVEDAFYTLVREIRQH
Chain of NRAS (SEQ ID NO: 5) (P01111 with tags, fused parts or gaps): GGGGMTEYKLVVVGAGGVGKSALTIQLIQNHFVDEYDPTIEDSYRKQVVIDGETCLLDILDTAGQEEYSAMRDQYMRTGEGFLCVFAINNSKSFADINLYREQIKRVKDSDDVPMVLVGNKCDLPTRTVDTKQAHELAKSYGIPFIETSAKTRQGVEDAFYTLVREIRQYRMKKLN

IC50 (HRAS (SEQ ID NO: 4)): > 11100 nM
IC50 [1]: 203 nM
IC50 (NRAS (SEQ ID NO: 5)): > 11100 nM
IC50 [2]: 33 nM
IC50 [3]: 60 nM
IC50 [4]: 285 nM
IC50 (G13D): 48 nM
Compound: Cc1cc2[nH]ncc2c(-c2c(F)cc3c(N4CCOC[C@@](C)(O)C4)nc(OC[C@@]45CCCN4C[C@H](F)C5)nc3c2F)c1C(F)(F)F [Ex-41, (6S)-4-(6,8-difluoro-2-(((2R,7aS)-2-fluorotetrahydro-1H-pyrrolizin-7a(5H)-yl)methoxy)-7-(6-methyl-5-(trifluoromethyl)-1H-indazol-4-yl)quinazolin-4-yl)-6-methyl-1,4-oxazepan-6-ol]
